Counter-ions that a name gives are not always drawn. Like-named read-outs stand apart in the source and are kept apart here.
How the values were obtained:
Assay type in all cases: physicochemical
[1] = Extractive distillation agent separating methyl t-butyl ether from n-pentane-cyclopentane mixtures (vapor-liquid equilibrium still)
[2] = Extractive distillation agent separating methyl t-butyl ether from 1-pentene (vapor-liquid equilibrium still)
[3] = Extractive distillation agent separating methyl t-butyl ether from cyclopentane (vapor-liquid equilibrium still); details: cyclopentane to methyl t-butyl ether, with agent
Description: The data in Tables 2-6 was obtained in a vapor-liquid equilibrium still.

[4] = Relative volatility of methyl t-butyl ether from close boiling hydrocarbons, no agent (vapor-liquid equilibrium still); details: hydrocarbon to methyl t-butyl ether
Description: I have discovered that certain organic compounds will effectively increase the relative volatility between methyl t-butyl ether and close boiling hydrocarbons when employed as the agent in extractive distillation. The data in Tables 2-6 was obtained in a vapor-liquid equilibrium still.

[5] = cyclopentane to methyl t-butyl ether, n-pentane-cyclopentane mixture, with agent
[6] = n-pentane to methyl t-butyl ether, n-pentane-cyclopentane mixture, with agent
[7] = 1-pentene to methyl t-butyl ether, with agent

| SMILES | Relative Volatility CyP/MTBE [1, 5] | Relative Volatility Pnt/MTBE [1, 6] | other results |
| --- | --- | --- | --- |
| COCC(C)OC(C)=O (stereo not shown) [1-Methoxy-2-propanol acetate] | 1.9 | 3.3 | Relative Volatility [2, 7]: 3.5 |
| CN1CCCC1=O [1-Methyl-2-pyrrolidinone] | 1.8 | 3.9 | Relative Volatility [3]: 1.8 |
| CCC[N+](=O)[O-] [1-Nitropropane] | 2.8 | 5.2 | – |
| C=CCCC [1-Pentene] | – | – | Relative Volatility [4]: 1.7; Relative Volatility ([4]; listed as 1-pentene): less than 1.7 |
| CC(=O)CC(C)=O [2,4-Pentanedione] | 1.9 | 3.4 | – |
| CC(C)[N+](=O)[O-] [2-Nitropropane] | 2.2 | 3.8 | – |
| CC(=O)c1ccccc1 [Acetophenone] | 1.7 | 1.7 | Relative Volatility [3]: 1.6 |
| C1CCCC1 [Cyclopentane] | – | – | Relative Volatility [4]: 1.55; Relative Volatility ([4]; listed as cyclopentane): less than 1.7 |
| CCOC(=O)OCC [Diethyl carbonate] | 1.8 | 3.1 | – |
| CCOC(=O)/C=C\C(=O)OCC [Diethyl maleate] | 1.8 | 3.4 | – |
| CCOC(=O)CC(=O)OCC [Diethyl malonate] | 2.0 | 3.7 | Relative Volatility [2, 7]: 3.1 |
| CC(C)CC(=O)CC(C)C [Diisobutyl ketone] | 1.5 | 2.5 | – |
| CN(C)C=O [Dimethylformamide] | – | – | Relative Volatility [3]: 2.0; Relative Volatility CyP/MTBE [1]: 2.3; Relative Volatility Pnt/MTBE [1]: 4.7; Relative Volatility [2]: 3.0 |
| C[S+](C)[O-] [Dimethylsulfoxide] | 2.7 | 2.8 | Relative Volatility [3]: 1.8; Relative Volatility [2, 7]: 3.9 |
| CCOC(C)=O [Ethyl acetate] | 1.8 | 2.9 | – |
| CCOC(=O)CC(C)=O [Ethyl acetoacetate] | 1.9 | 4.2 | – |

| SMILES | Relative Volatility CyP/MTBE [1, 5] | Relative Volatility Pnt/MTBE [1, 6] | other results |
| --- | --- | --- | --- |
| CCOC(=O)CC(C)C [Ethyl isovalerate] | 1.5 | 2.5 | – |
| CC(=O)OCCOC(C)=O [Ethylene glycol diacetate] | 1.8 | 3.3 | Relative Volatility [2, 7]: 5.5 |
| COCCO [Ethylene glycol methyl ether] | – | – | Relative Volatility [2]: 3.6 |
| CC1=CC(=O)CC(C)(C)C1 [Isophorone] | 1.5 | 2.8 | – |
| CC(=O)OC(C)C [Isopropyl acetate] | 1.8 | 3.1 | – |
| CC(=O)CCC(C)C [Methyl isoamyl ketone] | 1.7 | 2.8 | Relative Volatility [2, 7]: 2.6 |
| COC(=O)c1ccccc1O [Methyl salicylate] | 1.6 | 1.9 | – |
| CC[N+](=O)[O-] [Nitroethane] | – | – | Relative Volatility CyP/MTBE [1]: 2.9; Relative Volatility Pnt/MTBE [1]: 5.2; Relative Volatility [2]: 3.0 |
| C[N+](=O)[O-] [Nitromethane] | – | – | Relative Volatility CyP/MTBE [1]: 1.6; Relative Volatility Pnt/MTBE [1]: 1.5 |
| CC(O)COc1ccccc1 (stereo not shown) [Propylene glycol phenyl ether] | 2.0 | 4.2 | Relative Volatility [2, 7]: 3.2 |
| O=S1(=O)CCCC1 [Sulfolane] | 3.6 | 2.4 | Relative Volatility [3]: 3.6; Relative Volatility [2]: 4.4 |
| CC(=O)OCC(COC(C)=O)OC(C)=O [Triacetin] | 1.9 | 3.6 | – |
| CCCCCCOC=O [n-Hexyl formate] | 1.6 | 1.6 | – |
| CCCCC [n-Pentane] | – | – | Relative Volatility [4]: 1.6; Relative Volatility ([4]; listed as n-pentane): less than 1.7 |
| CCCOC(C)=O [n-Propyl acetate] | 1.8 | 2.6 | – |
| CC(C)(C)O [t-Butanol] | – | – | Relative Volatility [3]: 2.2 |

Reference: patent US5228957A, “Separation of methyl T-butyl ether from close boiling C5 hydrocarbons by extractive distillation” (priority 1993, dated 1993)
